Laboratory results published in PMC3566143, “Pantothenamides Are Potent, On-Target Inhibitors of Plasmodium falciparum Growth When Serum Pantetheinase Is Inactivated” (PLoS ONE, 2013).
Like-named read-outs stand apart in the source and are kept apart here.

Key:
[1] = test system: erythrocytic stage P. falciparum parasites (strain 3D7); assay: SYBR Green I-based in vitro growth assay (96 h); assay type: cell-based, Plasmodium falciparum; conditions: for IC50: 1 µM pantothenate, 96 h; for effect on parasite growth in fresh Albumax-complete RPMI: fresh medium, up to 200 µM (highest concentration tested)
Description: Erythrocytic stage P. falciparum parasites (strain 3D7) were maintained within human erythrocytes in continuous culture essentially as described previously, [25]. P. falciparum-infected erythrocytes were routinely cultured in RPMI 1640 medium supplemented with 25 mM HEPES, 20 mM D-glucose, 200 µM hypoxanthine, 24 mg/L gentamycin and Albumax II (0.6%, w/v), which, hereafter is referred to as Albumax-complete RPMI. For several days prior to carrying out the assays testing the effect of compounds on the growth of P. falciparum in medium supplemented with human serum (instead of Albumax II), the parasites were cultured in the same medium mentioned above, except that human serum (10%, v/v, pooled from different blood donors) was used rather than Albumax II. This medium is hereafter referred to as human serum-complete RPMI.
The in vitro antiplasmodial activity of test compounds was determined using the malaria SYBR Green I-based fluorescence assay described by Smilkstein et al., with minor modifications. Briefly, P. falciparum-infected erythrocytes were incubated in culture medium containing two-fold dilutions of the test compounds in 96-well microtiter plates. Assays were initiated with ring-stage P. falciparum-infected erythrocytes at a hematocrit and parasitemia of 1%. Wells containing infected erythrocytes in the presence of chloroquine (0.25–2 µM) served as zero growth controls and wells containing infected erythrocytes in the absence of chloroquine or test compounds served as 100% parasite growth controls. Plates were incubated at 37°C under an atmosphere of 96% nitrogen, 3% carbon dioxide and 1% oxygen for 96 h, before 100 µL from each well was mixed with 100 µL of SYBR Safe DNA gel stain (0.2 µL/mL) in 20 mM Tris, pH 7.5, 5 mM ethylenediaminetetraacetic acid (EDTA), 0.008% (w/v) saponin, 0.08% (v/v) Triton X-100, in a second 96-well microtitre plate. Fluorescence was measured using a FLUOstar OPTIMA multidetection microplate reader from BMG LABTECH with excitation and emission wavelengths of 490 and 520 nm, respectively. The 50% inhibitory concentration (IC50) of each test compound under each test condition was calculated by fitting the data to a sigmoidal curve (typically y = a/(1+ (x/x0)^b) using nonlinear least squares regression (SigmaPlot, Systat Software) and averaging the IC50 estimates from independent experiments.
The antiplasmodial activity of test compounds was assessed in media that had been subjected to different pre-incubations. “Fresh” medium refers to medium that was stored for a maximum of 48 h at 4°C, and incubated at 37°C for a maximum of 1 h, prior to use. “Aged” medium refers to medium that was stored for a minimum of one week at 4°C and incubated intermittently at 37°C, or medium incubated continuously at 37°C for 40 h soon after preparation. As indicated at the relevant positions within the “Results” section, for some experiments the fresh medium used was, more specifically, medium used immediately following preparation, and the aged medium used was, more specifically, medium that was incubated at 37°C for 40 h immediately prior to use.

P. falciparum PanK = assay: [14C]pantothenate phosphorylation assay with P. falciparum lysate; assay type: biochemical, Plasmodium falciparum; conditions: 100 µM pantothenamide, 0.2 µM [14C]pantothenate, 10 min
Description: To assess the effect of the pantothenamides on pantothenate phosphorylation by P. falciparum PanK, the phosphorylation of [^14C]pantothenate by P. falciparum lysates was measured in the presence and absence of a single concentration of each pantothenamide. P. falciparum lysate was prepared from trophozoite stage parasites “isolated” from their host erythrocyte by treatment with 0.05% (w/v) saponin (essentially as described by Saliba et al.), and washed (five times) in HEPES-buffered saline (125 mM NaCl, 5 mM KCl, 20 mM D-glucose, 25 mM HEPES, 1 mM MgCl2, pH 7.1). Lysates were prepared as described by van Schalkwyk et al., except that 10 mM potassium phosphate, pH 7.4 (rather than 10 mM Tris, pH 7.4), was used to lyse the cells. Aliquots of lysate were stored at −20°C. The concentration of cell lysates was determined from cell counts made using an improved Neubauer hemocytometer.
[^14C]Pantothenate phosphorylation was assayed using the Somogyi reagent essentially as described by Saliba et al., except that pantothenate phosphorylation was terminated by heat denaturation (rather than acid denaturation) of the protein in reaction aliquots. Briefly, P. falciparum lysate was added to solutions (at 37°C) of 50 mM Tris, 5 mM ATP, 5 mM MgCl2, at pH 7.4, containing [^14C]pantothenate (at a final concentration of 0.01 µCi/mL, or 0.2 µM), and a pantothenamide (at a final concentration of 100 µM) or an equivalent volume of solvent. Typically, lysate prepared from 5.4–6.5×10^7 parasites was present in each mL of reaction solution. Zero phosphorylation control reactions were prepared by adding a corresponding volume of 10 mM potassium phosphate instead of parasite lysate. Following a ten minute incubation at 37°C (a period during which pantothenate phosphorylation increased linearly with time in the absence of inhibitors) 200 µL aliquots of the [^14C]pantothenate phosphorylation reactions were transferred in duplicate to microcentrifuge tubes, and immediately incubated at 95°C for 10 min to terminate phosphorylation. Terminated reaction samples were centrifuged at 15 800×g for 10 min to pellet the denatured protein, before two aliquots of each supernatant (typically 80 µL) were transferred to new microcentrifuge tubes. To one aliquot, 500 µL Somogyi reagent was added, and to the other, 500 µL water was added. The samples were processed for determination of phosphorylated [^14C]pantothenate as described previously.

[2] = Plasmodium falciparum, 3D7, 96 h, fresh Albumax-complete RPMI, read-out: IC50 against P. falciparum, fresh medium, 1 μM pantothenate
[3] = Plasmodium falciparum, 3D7, aged Albumax-complete RPMI (37°C for 40 h), read-out: IC50 against P. falciparum, aged medium, 1 μM pantothenate
[4] = fresh Albumax-complete RPMI, IC50 at 100 µM pantothenate / IC50 at 1 µM pantothenate

SMILES	IC50 [1, 2] [µM]	IC50 [1, 3] [µM]	Inhibition of pantothenate phosphorylation at 100 μM (P. falciparum PanK) [%]	further results
COc1cc(CNC(=O)CCNC(=O)[C@H](O)C(C)(C)CO)cc(OC)c1OC [Compound 6]	> 200	> 200	96 ± 2	–
CCSCCNC(=O)CCNC(=O)[C@H](O)C(C)(C)CO [Compound 17]	44 ± 5	0.067 ± 0.002	95 ± 5	–
CC(C)(CO)[C@@H](O)C(=O)NCCC(=O)NCCO [Compound 16]	> 200	–	100	effect on parasite growth in fresh Albumax-complete RPMI [1]: without effect
CC(C)=CCC/C(C)=C/CNC(=O)CCNC(=O)[C@H](O)C(C)(C)CO [Compound 13]	66 ± 4	150 ± 5	100	fold-increase in IC50 following supplementation with 100 µM pantothenate, fresh medium [1, 4]: 1±0.1 times
CC(C)(CO)[C@@H](O)C(=O)NCCCO [pantothenol, reference compound]	–	–	–	inhibition at 2000 µM ([1]; Plasmodium falciparum, 3D7, 2 mM, Albumax-complete RPMI supplemented with 100 µM pantothenate, fresh and aged, read-out: inhibition of growth at highest concentration tested with 100 µM pantothenate): < 50%; effect of additional Albumax II on activity in aged medium ([1]; aged medium + additional Albumax II (0.6%, w/v)): unaffected; activity in aged versus fresh Albumax-complete RPMI ([1]; aged vs fresh medium, P = 0.32): comparable in aged and fresh medium
CCOCCCNC(=O)CCNC(=O)[C@H](O)C(C)(C)CO [Compound 19]	49 ± 8	0.27 ± 0.06	96 ± 4	fold-increase in IC50 following supplementation with 100 µM pantothenate, aged medium ([1]; aged Albumax-complete RPMI, IC50 at 100 µM pantothenate / IC50 at 1 µM pantothenate): 24±1 times; fold-increase in IC50 following supplementation with 100 µM pantothenate, fresh medium [1, 4]: 1.7±0.4 times
CC(C)(CO)[C@@H](O)C(=O)NCCC(=O)NCCN1CCOCC1 [Compound 8]	> 200	> 200	94 ± 5	–
CCCCCCCNC(=O)CCNC(=O)[C@H](O)C(C)(C)CO [Compound 2]	> 200	–	99 ± 1	–
CCCCCNC(=O)CCNC(=O)[C@H](O)C(C)(C)CO [Compound 1]	124 ± 15	2 ± 0.2	99 ± 1	–
CC(C)(CO)[C@@H](O)C(=O)NCCC(=O)NCCc1ccccc1 [Compound 3]	–	–	100	IC50 ([1]; Plasmodium falciparum, 3D7, 96 h, aged Albumax-complete RPMI, read-out: IC50 against P. falciparum in aged medium): 0.02 ± 0.002 µM
CC(CCc1ccccc1)NC(=O)CCNC(=O)[C@H](O)C(C)(C)CO (some centres unmarked) [Compound 5]	> 200	> 200	94 ± 3	–
COc1ccc(CCNC(=O)CCNC(=O)[C@H](O)C(C)(C)CO)cc1OC [Compound 4]	> 200	> 200	100	–
CC1C(NC(=O)CCNC(=O)C(O)C(C)(C)CO)CC2CC1C2(C)C (centres unmarked) [Compound 10]	> 200	> 200	100	–
CC(C)(CO)[C@@H](O)C(=O)NCCC(=O)N1CCN(Cc2ccccc2)CC1 [Compound 7]	> 200	> 200	98 ± 2	–
CCCNC(=O)CCNC(=O)[C@H](O)C(C)(C)CO [Compound 11]	134 ± 22	0.34 ± 0.01	100	–
COc1ccc(CNC(=O)CCNC(=O)[C@H](O)C(C)(C)CO)cc1 [Compound 9]	> 200	–	99 ± 1	–
COCCCNC(=O)CCNC(=O)[C@H](O)C(C)(C)CO [Compound 21]	166 ± 18	1.9 ± 0.5	98 ± 2	–
CC(C)(CO)[C@@H](O)C(=O)NCCC(=O)NCCCO [Compound 20]	> 200	–	94 ± 6	effect on parasite growth in fresh Albumax-complete RPMI [1]: without effect
CSCCNC(=O)CCNC(=O)[C@H](O)C(C)(C)CO [Compound 14]	> 200	> 200	100	effect on parasite growth in fresh Albumax-complete RPMI [1]: little effect
CCOCCNC(=O)CCNC(=O)[C@H](O)C(C)(C)CO [Compound 22]	162 ± 20	1.4 ± 0.1	100	–
CSCCCNC(=O)CCNC(=O)[C@H](O)C(C)(C)CO [Compound 18]	76 ± 12	0.23 ± 0.06	98 ± 2	–
COCCNC(=O)CCNC(=O)[C@H](O)C(C)(C)CO [Compound 15]	> 200	> 200	100	effect on parasite growth in fresh Albumax-complete RPMI [1]: lacked antiplasmodial activity
